# Test results from patent US20080317857A1, “V-Atpase Inhibitors of Use in the Treatment of Septic Shock” (Brane Discovery S.r.l., priority 2005, published 2008).
# Assays:
# Assay type in all cases: cell-based
# [1] = tested on: Monocytes; assay: Chemoattractant-induced rapid adhesion of monocytes to fibrinogen; settings: Homo sapiens, Monocyte, read-out: Inhibition of Adhesion (%) Monocytes (fMLP)
# Description: (§1) Adhesion was performed on purified integrin ligands and was evaluated as reported in Constantin G. et al., Immunity, 16, 759-769, 2000. Briefly, primary naïve lymphocytes, polymorphonuclear neutrophils (PMNs) or monocytes were isolated form healthy donors. In other experiments, murine autoreactive T cells were obtained from SJL mice immunized with PLP139-151 as described (Piccio L. et al., J. Immunol. 168, 1940-1949, 2002). Cells were resuspended at 4×10^6/ml in PBS, CaCl2, MgCl2 1 mM, 10% FCS, pH 7.2. Adhesion assays were performed on eighteen well glass slides coated overnight at 4° C. with ligands for CR3 (fibrinogen) or LFA-1 (ICAM-1). 20 μl of cell suspension were added to the wells and stimulated at 37° C. with 5 μl of agonists prior to washing, fixation and computer-assisted enumeration of bound cells.
# (§2) Integrin activation was measured as induction of rapid adhesion triggered by the classical chemoattractant N-formyl-L-methionyl-L-leucyl-phenylalanine (fMLP) (100 nM) or by the CC chemokine MIP3β (CCL19, 1 μM). PMNs and monocytes were triggered to adhere to fibrinogen (CR3 ligand); naive human lymphocytes or murine encephalitogenic T cells were triggered to adhere to ICAM-1 (LFA-1 ligand). Triggered adhesion was evaluated after 2 min of stimulation under static conditions. The cells were pretreated at 37° C. for 30-60 min with the indicated concentrations of the test compound. Results are expressed as percentage of inhibition over control (=100%) and are the mean of three experiments in the case of human leukocytes. Results are expressed as mean counts and are the mean counts±S.D of three experiments and are the mean of three experiments in the case of murine encephalitogenic lymphocytes.
# [2] = tested on: PMNs; assay: Chemotaxis assay, PMNs (transwell); settings: Homo sapiens
# Description: (§3) PMNs and monocytes migration was assessed using 1 or 3-μm pore size transwells (Bio-Coat Becton-Dickinson), while lymphocytes by using 5-μm pore size transwells.
# (§4) Cells were in RPMI1640, containing 10% heat-inactivated Fetal Calf Serum (FCS) and 20 mM HEPES, pH 7.3, at 2×10^6/ml. 100 μl of cell suspension were added to the top well, and 600 μl of medium, containing chemoaftractants and test compound, were added to the bottom well. Migration was evaluated after 2 h for PMNs and monocytes and after 4 h for lymphocytes. fMLP 10 nM (PMNs and monocytes) and MIP-3β 100 nM (lymphocytes) were utilized as chemoattractants. After fixation with 1.5% glutaraldehyde, migrated cells were counted by fluorescence-activated cell sorting using polystyrene beads (Polyscience) as an internal standard (Campbell J. J. et al. J. Cell. Biol. 134, 255-266, 1996; Laudanna C. et al. J. Biol. Chem. 273, 46, 30306-30315, 1998).
# (§5) Results are expressed as percentage of inhibition over control (=100%), and are the mean of three experiments.
# [3] = tested on: Lymphocytes; assay: Chemotaxis assay, lymphocytes (transwell); settings: Homo sapiens, Lymphocyte
# Description: as §3, §4, §5
# [4] = tested on: PMNs; assay: Chemoattractant-induced rapid adhesion of PMNs to fibrinogen (CR3 ligand); settings: Homo sapiens
# Description: as §1, §2
# Integrin activation was measured as induction of rapid adhesion triggered by the “classical” chemoattractant fMLP (100 nM) or by the CC chemokine MIP3β(CCL19, 1 μM). PMNs were triggered to adhere to fibrinogen (CR3 ligand); lymphocytes were triggered to adhere to ICAM-1 (LFA-1 ligand).
smiles,measurement,setting,value
COC(=O)c1[nH]c2cc(OC)c(OC)cc2c1-c1ccc(OC)cc1 [Example 1],inhibition at 2.5 µM,[1]; [cpd] 2.5 μM,< 5%
same,inhibition at 5 µM,[1]; [cpd] 5 μM,< 5%
same,inhibition at 10 µM,[1]; [cpd] 10 μM,< 5%
same,inhibition at 25 µM,[1]; [cpd] 25 μM,< 5%
same,inhibition at 50 µM,[1]; [cpd] 50 μM,< 5%
same,inhibition at 100 µM,[1]; [cpd] 100 μM,< 5%
same,inhibition at 2.5 µM,"[2]; [cpd] 2.5 μM, read-out: Inhibition of Chemotaxis (%) PMNs (fMLP)",14.6%
same,inhibition at 5 µM,"[2]; [cpd] 5 μM, read-out: Inhibition of Chemotaxis (%) PMNs (fMLP) (converted)",28.2%
same,inhibition at 10 µM,"[2]; [cpd] 10 μM, read-out: Inhibition of Chemotaxis (%) PMNs (fMLP) (converted)",34%
same,inhibition at 25 µM,"[2]; [cpd] 25 μM, read-out: Inhibition of Chemotaxis (%) PMNs (fMLP) (converted)",40.6%
same,inhibition at 50 µM,"[2]; [cpd] 50 μM, read-out: Inhibition of Chemotaxis (%) PMNs (fMLP)",46.4%
same,inhibition at 100 µM,"[2]; [cpd] 100 μM, read-out: Inhibition of Chemotaxis (%) PMNs (fMLP) (converted)",62.6%
same,inhibition at 2.5 µM,"[3]; [cpd] 2.5 μM, read-out: Inhibition of Chemotaxis (%) Lymphocytes (MIP3-β)",11.6%
same,inhibition at 5 µM,"[3]; [cpd] 5 μM, read-out: Inhibition of Chemotaxis (%) Lymphocytes (MIP3-β) (converted)",27.2%
same,inhibition at 10 µM,"[3]; [cpd] 10 μM, read-out: Inhibition of Chemotaxis (%) Lymphocytes (MIP3-β) (converted)",43.2%
same,inhibition at 25 µM,"[3]; [cpd] 25 μM, read-out: Inhibition of Chemotaxis (%) Lymphocytes (MIP3-β) (converted)",53.3%
same,inhibition at 50 µM,"[3]; [cpd] 50 μM, read-out: Inhibition of Chemotaxis (%) Lymphocytes (MIP3-β) (converted)",63.5%
same,inhibition at 100 µM,"[3]; [cpd] 100 μM, read-out: Inhibition of Chemotaxis (%) Lymphocytes (MIP3-β) (converted)",86.9%
same,inhibition at 2.5 µM,"[4]; [cpd] 2.5 μM, read-out: Inhibition of Adhesion (%) PMNs (fMLP)",9.4%
same,inhibition at 5 µM,"[4]; [cpd] 5 μM, read-out: Inhibition of Adhesion (%) PMNs (fMLP) (converted)",56.1%
same,inhibition at 10 µM,"[4]; [cpd] 10 μM, read-out: Inhibition of Adhesion (%) PMNs (fMLP) (converted)",66.7%
same,inhibition at 25 µM,"[4]; [cpd] 25 μM, read-out: Inhibition of Adhesion (%) PMNs (fMLP) (converted)",72.9%
same,inhibition at 50 µM,"[4]; [cpd] 50 μM, read-out: Inhibition of Adhesion (%) PMNs (fMLP) (converted)",79%
same,inhibition at 100 µM,"[4]; [cpd] 100 μM, read-out: Inhibition of Adhesion (%) PMNs (fMLP) (converted)",94.2%
